Experimental data taken from patent US11951131B2, “Anti-SLAMF7 chimeric antigen receptors” (The United States of America, as represented by the …, priority 2018, dated 2024).
“Also recorded” adds a separate entry of the source.

How the values were obtained:
SLAMF7-K562 target cells = experiment: CFSE proliferation assay; assay type: cell-based, human; settings: SLAMF7-K562 versus NGFR-K562 target cells, 4 days (FIGS. 8B, 8C)
Description: Cocultures were set up in 24-well plates. Target cells included in cocultures were either 0.5×10^6 irradiated SLAMF7-K562 cells or 0.5×10^6 irradiated NGFR-K562 cells. The cocultures also included 1×10^6 T cells from cultures that had been transduced with either […]. The T cells were labeled with carboxy fluorescein diacetate succinimidyl ester (CFSE, Invitrogen) as previously described. The medium used in the cocultures was AIM V™ (Invitrogen) plus 5% human AB serum. IL-2 was not added to the medium. Four days after initiation, the live cells in each coculture were counted with trypan blue for dead cell exclusion, and flow cytometry was performed by Protein L staining.

[1] = test system: IC9-Luc90-CD828Z CAR T cells; experiment: AP1903 abrogation of CAR T-cell activity in MM.1S tumor-bearing mice; assay type: in vivo, NSG mice; settings: 2×10^6 IC9-Luc90-CD828Z T cells plus vehicle control
Procedure: First, MM.1S human SLAMF7^+ multiple myeloma cell line tumors were established in immunodeficient mice. In this model, the MM.1S cells formed a solid cutaneous mass. Measurable tumors were allowed to develop over 7 days, and then the mice were treated with a single intravenous infusion of MSGV1-IC9-Luc90-CD828Z-transduced human T cells. NSG mice (NOD.Cg-Prkdc^scid Il2rg^tm1Wjl/SzJ) from The Jackson Laboratory, Bar Harbor, Me., were used. Mice received intradermal injections of 4×10^6 MM.1S cells. The cells were suspended in a 1:1 mixture of MATRIGEL™ gelatinous protein mixture (BD Biosciences) and PBS (Phosphate-buffered saline) for injection. Tumors were allowed to grow for 7 days, and then each mouse received a single intravenous infusion of human T cells that were transduced with one of 3 CARs: IC9-Luc90-CD828Z (suicide gene+anti-SLAMF7 CAR), Luc90-CD828Z (anti-SLAMF7 CAR alone), or a negative-control anti-CD19 CAR Hu19-CD828Z. A 4th group was left untreated. All groups included 5 mice. After CAR T-cell infusion, the tumors were measured with calipers every 3 days. The longest length and the length perpendicular to the longest length and the tumor thickness were multiplied together to obtain the tumor volume in mm^3. When the longest length reached 15 mm, mice were sacrificed. Animal studies were approved by the National Cancer Institute Animal Care and Use Committee.
MM.1S tumors were established in NSG mice as described in Example 9. The mice were treated with 2×10^6 IC9-Luc90-CD828Z T cells. The mice received 5 mg/kg of AP1903 intraeritoneally for either 3 days or 12 days after the CAR T-cell infusion. […] Also levels of IC9-Luc90-CD828Z CART cells in the mice receiving AP1903 were reduced as compared to the mice receiving the vehicle.

IC9-expressing T cells = experiment: 6-hour and 48-hour post-rimiducid T cell death analysis; assay type: cell-based, human; settings: for elimination of CAR T cells when AP1903 was added to the T-cell cultures: per construct, in words
Procedure: On day 8 of culture, 1 million T cells from cultures that were either untransduced or transduced with one of the anti-SLAMF7 CARs cells were suspended at 1×10^6 T cells/mL in AIM V™ media (Invitrogen) plus 300 IU of interleukin-2. One million cells were added to each of 4 wells of a 12-well plate. A different concentration of AP1903 (MedChem Express, Princeton, N.J.) from was added to each well. AP1903 is also referred to as rimiducid. The concentrations of AP1903 evaluated were: 0, 1, 10, or 100 ng/mL.
Six hours and 48 hours after these cultures were set up, the cells were counted, washed, and stained with Protein L as described above. Next, the cells were washed twice with PBS, re-suspended in Annexin V binding buffer (BD Biosciences), and incubated with allophycocyanin-conjugated Annexin V (BD Biosciences) and 7AAD (BD Biosciences) for 15 minutes (mins) at room temp. The cells were immediately analyzed by flow cytometry.

293T = experiment: IFN-gamma ELISA, CAR T cells with 293T target cells; assay type: cell-based, human; settings: Table B-1; SLAMF7-negative cell line
Description: (§1) MM.1S is a SLAMF7^+ multiple myeloma cell line that was obtained from American Type Culture Collection (ATCC). A549 is a BCMA-negative lung cancer cell line (ATCC). TC71 is a BCMA-negative sarcoma cell line. CCRF-CEM, 293T, and A549 are SLAMF7-negative cell lines (ATCC). COL0207, HepG2, U251, Panc10.05, and TC71 are […] that were kind gifts from Dr. Steven Rosenberg, National Cancer Institute. SLAMF7-K562 are K562 cells (ATCC) which were transduced with the gene for full-length SLAMF7. SLAMF7-RPMI are RPMI8226 cells (ATCC) which were transduced with the gene for full-length SLAMF7. NGFR-K562 are K562 cells which were transduced with the gene for low-affinity nerve growth factor (Kochenderfer et al., J. Immunother., 32(7): 689-702 (2009)). All of the human samples mentioned were obtained from patients enrolled in IRB-approved clinical trials at the National Cancer Institute.
(§2) One-hundred thousand SLAMF7^+ or SLAMF7-negative target cells were combined with 100,000 CAR-transduced T cells in duplicate wells of a 96 well round bottom plate in 200 µL of AIM V™ medium (Invitrogen) plus 5% human serum. […]
(§3) The T cells columns indicate whether T cells were transduced with Luc90-CD828Z, Luc63-CD828Z, or were untransduced. The % CAR^+ in Table B-1 was determined by staining the T cells with Protein L. Except for the % CAR^+ column, all values are pg/mL of IFN-gamma. […]

Panc 10.05 = experiment: IFN-gamma ELISA, CAR T cells with Panc 10.05 target cells; assay type: cell-based, human; settings: Table B-2
Description: as §1, §2, §3

COLO 205 = experiment: IFN-gamma ELISA, CAR T cells with COLO 205 target cells; assay type: cell-based, human; settings: Table B-1
Description: as §1, §2, §3

U251 = experiment: IFN-gamma ELISA, CAR T cells with U251 target cells; assay type: cell-based, human; settings: Table B-2
Description: as §1, §2, §3

A549 = experiment: IFN-gamma ELISA, CAR T cells with A549 target cells; assay type: cell-based, human; settings: Table B-2; SLAMF7-negative
Description: as §1, §2, §3

Substance	proliferation (CFSE dilution) (SLAMF7-K562 target cells)	tumor outcome in mice receiving vehicle instead of AP1903 [1]	elimination of CAR^+ T cells, comparison of the two constructs (IC9-expressing T cells; IC9-Luc90-CD828Z compared with Luc90-CD828Z-IC9)	elimination of CAR T cells when AP1903 was added to the T-cell cultures (IC9-expressing T cells)	IFN-gamma, target cells 293T (293T)	IFN-gamma, target cells Panc 10.05 (Panc 10.05)	IFN-gamma, target cells COLO 205 (COLO 205)	IFN-gamma, target cells U251 (U251)	IFN-gamma, target cells A549 (A549)
IC9-Luc90-CD828Z: CAR plus suicide gene construct (SEQ ID NO: 31): IC9 suicide gene 5′ to the CAR, T2A, Luc90-CD828Z	proliferated specifically in response to SLAMF7^+ target cells; also recorded: proliferated more	tumor elimination	slightly superior	efficiently eliminated					
Luc90-CD828Z: anti-SLAMF7 CAR (SEQ ID NO: 27): murine Luc90 scFv, human CD8a hinge and TM, CD28 and CD3ζ domains; tested as transduced T cells	proliferated specifically in response to SLAMF7^+ target cells			efficiently eliminated	37 pg/mL	36 pg/mL	19 pg/mL	27 pg/mL	79 pg/mL
